Test results as given in patent publication US9383348B2, “Compositions and methods for treating lung disorders” (priority 2008, dated 2016).

Columns and labels:
[1] = test system: cytokine (IL-1 and IFN-γ) insufflated rats; experiment: IL-1 and IFN-γ insufflation inflammatory acute lung injury (ARDS) in rats; assay type: in vivo
Method: Insufflating IL-1 and interferon-γ (IFN-γ) produced an inflammatory acute lung injury (ARDS) in rats 24 hours later (9). Cytokine insufflated rats had increased lung lavage LDH concentrations (FIG. 2A) and neutrophil numbers (FIG. 2B) compared to saline insufflated control rats. […] Lavage LDH levels paralleled other measures of lung injury including increased epithelial-derived cytokeratin 18 and endothelial-derived angiotensin converting enzyme (ACE) levels and morphologic evidence of inflammation and injury.
Remarkably, protection occurred with ERGO administered post-insult even after some neutrophils had invaded the lung.
[…] Each value is the mean +/−SEM of 3 to 6 determinations.

IL-1 insufflated rats = experiment: IL-1 insufflation inflammatory acute lung injury (ARDS) in rats; assay type: in vivo; conditions: NAC 150 mg/kg intravenously either just before or 2½ hours after IL-1 insufflation; 5 hours; compared to untreated IL-1 insufflated rats
Method: Insufflating IL-1 produced an inflammatory acute lung injury (ARDS, FIG. 1A) in rats 5 hours later, which was associated with increases in lung lavage neutrophils (FIG. 1B), expired H2O2 levels (FIG. 1C) and lung GSSG levels (FIG. 1D). In contrast, rats administered NAC (150 mg/kg intravenously) either just before or 2½ hours after IL-1 insufflation had decreased lung leak index, lung lavage neutrophil numbers, expired H2O2 levels and lung GSSG levels compared to untreated rats insufflated with IL-1.

[2] = single intravenous bolus 15 mg/kg, 1 hour before cytokine insufflation, compared to untreated cytokine insufflated rats
[3] = single intravenous bolus 150 mg/kg, 18 hours after cytokine insufflation, compared to untreated cytokine insufflated rats
[4] = single intravenous injection 150 mg/kg, 1 hour before IL-1 and IFN-γ insufflation, 24 hours

C[N+](C)(C)[C@@H](Cc1c[nH]c(=S)[nH]1)C(=O)[O-] [ERGO, ergothioneine]
decreased: lung lavage LDH concentrations [1, 4] | lung lavage neutrophil concentrations [1, 4] | lung lavage total leukocyte concentrations [1, 4]
reduction in the severity: lung neutrophil numbers [1, 3] | markers of alveolar capillary membrane injury [1, 3] | lung inflammation ([1]; single intravenous bolus 150 mg/kg, 18 hours after cytokine insufflation, data not shown)
less: lung injury [1, 2] | lung neutrophils [1, 2]

CC(=O)N[C@@H](CS)C(=O)O [NAC, N-acetylcysteine]
decreased: expired H2O2 levels (IL-1 insufflated rats) | lung GSSG levels (IL-1 insufflated rats) | lung lavage neutrophil numbers (IL-1 insufflated rats) | lung leak index (IL-1 insufflated rats)
